Source: ChEMBL document CHEMBL1201862, “PubChem BioAssay data set” (2004)
The source made the active and inactive calls. Residues, ends and D or L forms follow the SMILES beside them. *: point of attachment. Boc = CC(C)(C)OC(=O)*; Bn = c1ccc(C*)cc1

How the values were obtained:
[1] = Luminescence Cell-Based Dose Response HTS to Identify Activators of Luciferase Translation or Activity in H4 […] Cells. [Related pubchem assays: 1829 (Project Summary), 1814 (Primary HTS)]; format: functional
H4 = experiment: Luminescence Cell-Based Dose Response HTS to Identify Activators of 5'UTR Stem-Loop Driven Prion Protein mRNA Translation in H4 Neuroglioblastoma Cells. [Related pubchem assays: 1829 (Project Summary), 1814 (Primary HTS)]; format: functional; details: Homo sapiens
[2] = test system: Streptococcus sp. 'group A'; experiment: Streptococcus pyogenes SK(-)GAS viability under kanamycin – luminescence, BacTiterGlo, confirmation, counter-screen for streptokinase expression inhibitor project, dose response (AID 1900); format: functional, organism-based
Streptokinase A = molecular target: T1, Streptokinase A (Streptococcus pyogenes serotype M1, UniProt P10520); experiment: viability-normalized secreted streptokinase activity reduction – plasminogen activation absorbance, OD405, dose response (AID 1914); format: functional, Streptococcus pyogenes M1 GAS;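 also: secreted streptokinase activity via plasminogen activation per viability signal from cell pellet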
T1 sequence (P10520 whole entry): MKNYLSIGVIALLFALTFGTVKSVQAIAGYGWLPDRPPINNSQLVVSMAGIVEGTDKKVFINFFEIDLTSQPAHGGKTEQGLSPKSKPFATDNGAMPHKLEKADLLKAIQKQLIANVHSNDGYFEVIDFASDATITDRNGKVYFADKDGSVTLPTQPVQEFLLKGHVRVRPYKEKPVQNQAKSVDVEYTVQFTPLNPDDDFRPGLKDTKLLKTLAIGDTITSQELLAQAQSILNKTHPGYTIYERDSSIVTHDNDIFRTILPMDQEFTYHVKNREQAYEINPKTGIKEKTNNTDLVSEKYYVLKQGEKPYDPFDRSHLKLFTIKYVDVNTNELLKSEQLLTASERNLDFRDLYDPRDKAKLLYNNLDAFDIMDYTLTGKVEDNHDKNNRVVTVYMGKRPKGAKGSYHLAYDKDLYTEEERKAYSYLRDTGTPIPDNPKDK

Streptococcus = experiment: GAS UMAA2166 growth inhibition – luminescence, BacTiterGlo, counter-screen for streptokinase expression inhibitor project, dose response (AID 1915); format: functional, organism-based;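 also: potency for reduction of bacterial viability or growth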
INS1 = experiment: INS-1E survival protection against cytokine death – cell-based, luminescence, retest, dose response (AID 449756); format: functional; details: Rattus norvegicus;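 also: cell death triggered by IL-1 beta plus TNF-alpha plus IFN-gamma mixture; protective hits raise ATP signal compared with cytokine alone wells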
Cytochrome P450 1A2 = molecular target: T2, Cytochrome P450 1A2 (Homo sapiens, UniProt P05177);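 also: PubChem cytochrome P450 panel assay, CYP1A2 panel member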
T2 sequence (P05177 whole entry): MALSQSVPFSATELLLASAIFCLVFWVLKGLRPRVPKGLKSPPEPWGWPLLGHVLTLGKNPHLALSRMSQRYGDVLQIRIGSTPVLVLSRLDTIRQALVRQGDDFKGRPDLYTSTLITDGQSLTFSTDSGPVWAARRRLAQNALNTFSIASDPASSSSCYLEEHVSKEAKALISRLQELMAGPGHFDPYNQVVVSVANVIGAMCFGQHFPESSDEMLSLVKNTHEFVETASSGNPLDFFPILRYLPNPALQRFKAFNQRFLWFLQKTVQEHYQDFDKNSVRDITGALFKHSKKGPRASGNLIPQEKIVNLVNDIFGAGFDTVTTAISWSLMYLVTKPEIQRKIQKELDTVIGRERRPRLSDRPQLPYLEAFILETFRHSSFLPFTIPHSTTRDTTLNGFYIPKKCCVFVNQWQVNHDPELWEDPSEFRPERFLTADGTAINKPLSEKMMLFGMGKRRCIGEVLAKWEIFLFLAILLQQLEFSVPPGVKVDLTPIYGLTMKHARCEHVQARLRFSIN

Cytochrome P450 2C9 = Cytochrome P450 2C9 (Homo sapiens, UniProt P11712)
Cytochrome P450 2C9, sequence (P11712 whole entry): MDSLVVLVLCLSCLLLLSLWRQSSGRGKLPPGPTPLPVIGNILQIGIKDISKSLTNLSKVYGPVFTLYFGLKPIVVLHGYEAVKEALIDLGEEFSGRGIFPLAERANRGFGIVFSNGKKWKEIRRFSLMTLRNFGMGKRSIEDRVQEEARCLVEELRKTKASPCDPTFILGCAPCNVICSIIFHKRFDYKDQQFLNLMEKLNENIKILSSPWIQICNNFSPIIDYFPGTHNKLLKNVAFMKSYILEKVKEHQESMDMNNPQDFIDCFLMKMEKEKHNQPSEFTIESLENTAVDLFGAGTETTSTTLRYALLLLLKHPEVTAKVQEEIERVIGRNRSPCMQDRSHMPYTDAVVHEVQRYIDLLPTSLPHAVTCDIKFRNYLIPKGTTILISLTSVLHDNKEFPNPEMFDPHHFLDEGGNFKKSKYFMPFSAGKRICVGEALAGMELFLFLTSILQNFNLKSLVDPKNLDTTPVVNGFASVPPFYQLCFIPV

[3] = Luminescence Cell-Based Dose Retest to Confirm Inhibitors of Cancer Stem Cells. [Related pubchem assays (depositor defined):AID2717, AID2721]; format: functional; details: Homo sapiens
Cytochrome P450 3A4 = Cytochrome P450 3A4 (Homo sapiens, UniProt P08684);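 also: CYP3A4 tested as one member of a cytochrome P450 panel screen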
Cytochrome P450 3A4, sequence (P08684 whole entry): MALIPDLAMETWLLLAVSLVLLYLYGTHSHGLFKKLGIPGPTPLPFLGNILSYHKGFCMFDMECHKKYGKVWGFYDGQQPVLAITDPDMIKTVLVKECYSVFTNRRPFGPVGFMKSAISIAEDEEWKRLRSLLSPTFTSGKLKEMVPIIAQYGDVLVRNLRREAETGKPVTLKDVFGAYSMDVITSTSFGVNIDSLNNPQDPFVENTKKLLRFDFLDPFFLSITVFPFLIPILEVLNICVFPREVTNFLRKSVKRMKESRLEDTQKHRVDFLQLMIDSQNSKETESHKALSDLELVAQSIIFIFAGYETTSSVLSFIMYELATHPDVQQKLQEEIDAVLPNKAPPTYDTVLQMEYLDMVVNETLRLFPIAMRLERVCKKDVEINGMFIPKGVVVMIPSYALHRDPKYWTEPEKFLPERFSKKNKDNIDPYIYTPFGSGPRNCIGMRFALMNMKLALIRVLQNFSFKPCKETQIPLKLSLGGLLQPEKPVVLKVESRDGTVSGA

Cytochrome P450 2C19 = Cytochrome P450 2C19 (Homo sapiens, UniProt P33261); experiment: Cytochrome panel assay with activity outcomes. Panel member name: p450-cyp2c19 Compounds with AC50 equal or less than 10 uM are considered active; format: functional; details: read-out: AC50
Cytochrome P450 2C19, sequence (P33261 whole entry): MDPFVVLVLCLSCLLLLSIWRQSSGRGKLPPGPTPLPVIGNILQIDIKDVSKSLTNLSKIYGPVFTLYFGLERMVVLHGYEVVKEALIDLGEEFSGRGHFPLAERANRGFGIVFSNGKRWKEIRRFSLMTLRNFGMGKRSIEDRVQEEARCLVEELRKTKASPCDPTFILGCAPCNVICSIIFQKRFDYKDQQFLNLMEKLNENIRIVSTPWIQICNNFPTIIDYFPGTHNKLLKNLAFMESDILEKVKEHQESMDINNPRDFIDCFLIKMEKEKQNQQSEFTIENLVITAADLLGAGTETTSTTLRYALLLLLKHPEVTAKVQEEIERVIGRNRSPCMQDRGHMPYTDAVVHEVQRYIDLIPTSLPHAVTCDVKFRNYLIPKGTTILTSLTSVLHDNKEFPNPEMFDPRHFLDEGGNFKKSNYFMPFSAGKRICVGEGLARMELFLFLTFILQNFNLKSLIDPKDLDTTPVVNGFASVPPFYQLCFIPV

[4] = NIH-3T3 fibroblast cytotoxicity, dose response, cytotoxicity control, cell-based, fluorescence, Alamar Blue, secondary assay (AID 2327); format: functional;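 also: NIH-3T3 mouse fibroblasts cultured with fluconazole at 8 µg/mL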
[5] = fluconazole-exposed Candida albicans growth modulators – fluorescence, retest, confirmation (AID 2467); format: functional, cell-based
[6] = molecular target: T3, Rac GTPase-activating protein 1 (Homo sapiens, UniProt Q9H0H5); experiment: blockers of MgcRacGAP-driven Rac1 GTP hydrolysis – biochemical, ADP Hunter fluorescence, primary and confirmatory, confirmation (AID 624330); format: functional
T3 sequence (Q9H0H5 whole entry): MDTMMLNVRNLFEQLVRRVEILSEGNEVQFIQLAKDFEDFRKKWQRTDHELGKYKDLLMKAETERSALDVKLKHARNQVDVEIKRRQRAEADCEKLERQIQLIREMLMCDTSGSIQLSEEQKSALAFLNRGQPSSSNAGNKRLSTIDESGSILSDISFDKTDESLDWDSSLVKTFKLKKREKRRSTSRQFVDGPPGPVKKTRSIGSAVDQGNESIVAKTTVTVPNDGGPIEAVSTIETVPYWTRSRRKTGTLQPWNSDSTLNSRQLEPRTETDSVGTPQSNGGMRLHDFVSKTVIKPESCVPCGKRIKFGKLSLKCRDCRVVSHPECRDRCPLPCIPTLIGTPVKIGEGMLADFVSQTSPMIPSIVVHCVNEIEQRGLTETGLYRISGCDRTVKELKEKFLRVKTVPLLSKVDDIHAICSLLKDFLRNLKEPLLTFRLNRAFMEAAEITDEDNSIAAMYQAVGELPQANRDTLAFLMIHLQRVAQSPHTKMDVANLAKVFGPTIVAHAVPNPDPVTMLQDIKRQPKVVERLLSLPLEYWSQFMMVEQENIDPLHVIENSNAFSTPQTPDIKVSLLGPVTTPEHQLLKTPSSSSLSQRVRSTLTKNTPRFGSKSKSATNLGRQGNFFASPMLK

[7] = molecular target: Luciferin 4-monooxygenase (Photinus pyralis, UniProt P08659); experiment: inhibition of purified Photinus pyralis luciferase – biochemical, luminescence, dose response (AID 1891)
Luciferin 4-monooxygenase, sequence (P08659 whole entry): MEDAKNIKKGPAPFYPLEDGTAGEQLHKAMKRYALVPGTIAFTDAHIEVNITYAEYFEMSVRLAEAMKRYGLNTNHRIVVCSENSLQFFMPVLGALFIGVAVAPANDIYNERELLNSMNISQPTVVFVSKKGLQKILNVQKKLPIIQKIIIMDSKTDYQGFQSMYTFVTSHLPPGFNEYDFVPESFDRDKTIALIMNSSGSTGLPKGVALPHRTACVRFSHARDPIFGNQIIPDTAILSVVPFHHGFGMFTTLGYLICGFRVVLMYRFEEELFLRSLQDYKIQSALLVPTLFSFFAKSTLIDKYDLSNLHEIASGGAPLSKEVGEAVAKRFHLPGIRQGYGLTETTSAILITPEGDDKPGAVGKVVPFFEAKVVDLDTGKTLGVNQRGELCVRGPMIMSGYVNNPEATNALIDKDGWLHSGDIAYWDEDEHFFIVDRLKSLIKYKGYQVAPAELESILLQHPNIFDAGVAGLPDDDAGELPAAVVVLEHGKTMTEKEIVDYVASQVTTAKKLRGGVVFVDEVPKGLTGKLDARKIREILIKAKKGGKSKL

[8] = Luminescence Cell-Based Dose Confirmation HTS to Identify Inhibitors of Platelet Dense Granule Release. [Related pubchem assays: 1663 (Primary HTS), 1678 (Summary of Project)]; format: functional

SMILES: COc1ccc(S(=O)(=O)n2ccc(-c3cnc(-c4ccccc4)s3)n2)cc1
- EC50 [1]: > 120 µM (not active)
- EC50 (H4): 41.2 µM (active)

SMILES: Cc1ccccc1Oc1nc(-c2ccccn2)nc2ccccc12
- EC50 [2]: 12.4 µM (active)
- EC50 (Streptokinase A): > 150 µM (not active)
- EC50 (Streptococcus): 18.5 µM (active)
- AC50 (INS1): 2.19 µM (active)

SMILES: CC1=N/C(=C\c2ccc([N+](=O)[O-])cc2)C(=O)N1c1ccc(Br)c(C)c1
- AC50 (Cytochrome P450 1A2): 5.62 µM (inconclusive)
- AC50 (Cytochrome P450 2C9): 7.94 µM (inconclusive)

SMILES: c1nc(NCc2ccc3c(c2)OCO3)c2cc(-c3ccc4c(c3)OCCO4)ccc2n1
- AC50 (INS1): 10.4 µM (active)

SMILES: COc1ccc(OC)c(C(=O)CSc2nccc(-c3ccc(Br)cc3)n2)c1
- AC50 [3]: 1.33 µM (active)

SMILES: Cn1c(=O)c(-c2cc(F)cc(F)c2)nc2cnc(N3CCNCC3)nc21
- AC50 (Cytochrome P450 3A4): 31.6 µM (inconclusive)
- AC50 (Cytochrome P450 2C9): 25.1 µM (inconclusive)

SMILES: COc1ccc(Nc2nnc(-c3ccccc3)c3ccccc23)cc1C(=O)N1CCCCC1
- AC50 [3]: 31.2 µM (active)

SMILES: O=c1cnc2cncnc2n1Cc1ccccc1
- AC50 (Cytochrome P450 2C19): 39.8 µM (inconclusive)
- AC50 (Cytochrome P450 3A4): 20 µM (inconclusive)
- AC50 (Cytochrome P450 2C9): 31.6 µM (inconclusive)

SMILES: Oc1c(C(c2ccccn2)N2CCC(Cc3ccccc3)CC2)cc(Cl)c2cccnc12 (stereo not given)
- EC50 [4]: 13.9 µM (inconclusive)
- EC50 [5]: 1.46 µM (active)

SMILES: O=C(CN1C(=O)S/C(=C\c2ccccn2)C1=O)Nc1ccccc1
- EC50 [4]: 89.4 µM (active)
- EC50 [5]: > 38 µM (not active)

SMILES: COc1ccc(OC)c(-c2csc(NC(=O)c3ccc(F)cc3)n2)c1
- AC50 [3]: 2.38 µM (active)

SMILES: O=C(c1cccc(F)c1)N1CCN(C2CCCCC2)CC1
- IC50 [6]: 116 µM (active)

SMILES: O=C(O)c1cc(O)ccc1NC(=O)C(c1ccccc1)c1ccccc1
- AC50 [3]: > 195 µM (inactive)

SMILES: COc1ccc(NS(=O)(=O)c2cccc(C(=O)NN=Cc3ccc(O)c(OC)c3)c2)cc1
- IC50 [6]: 79.4 µM (active)

SMILES: CCCCNc1cc(=O)oc2ccccc12
- AC50 (Cytochrome P450 3A4): 17.8 µM (inconclusive)
- AC50 (Cytochrome P450 2C9): 6.31 µM (inconclusive)

SMILES: COc1cc(/C=N/Nc2ccc(F)cc2F)cc(OC)c1OC
- EC50 [4]: 20.8 µM (active)
- EC50 [5]: > 38 µM (not active)

SMILES: COc1cc(/C=N/NC(=O)/C(=C/c2ccccc2)CCO)ccc1O
- EC50 [7]: > 112 µM (not active)
- EC50 [8]: 11.1 µM (active)
- IC50 [6]: 35.7 µM (active)

SMILES: CC(C)CC(NC(=O)C(NC(=O)C(Cc1ccc(OCc2ccccc2)cc1)NC(=O)OC(C)(C)C)C(C)C)C(N)=O (stereo not drawn) (Boc-Tyr(Bn)-Val-Leu-NH2; configuration not given here)
- AC50 [3]: 24.4 µM (active)

SMILES: CCOC(=O)Nc1ccc(NCc2ccc(F)cc2)nc1N [FLUPIRTINE]
- AC50 (Cytochrome P450 2C19): 25.1 µM (inconclusive)
- AC50 (Cytochrome P450 1A2): 39.8 µM (inconclusive)
- AC50 (Cytochrome P450 2C9): 25.1 µM (inconclusive)
